In patent US8415272B2, “Quinoline derivatives and their use as fungicides” (Syngenta Crop Protection LLC, priority 2008, dated 2013):

What was measured:
Plasmopara viticola = experiment: Leaf disk assay, Plasmopara viticola (downy mildew of grapevine), preventive; type: in vivo; conditions: foliar, 168 h, grapevine leaf disks, assessed seven days after inoculation, read-out: control of fungal infection, Plasmopara viticola
Botrytis cinerea = experiment: Leaf disk assay, Botrytis cinerea (grey mould) on bean, preventive; type: in vivo; conditions: foliar, 96 h, bean leaf disks, assessed four days after inoculation, read-out: control of fungal infection, Botrytis cinerea
[1] = system: Puccinia recondita f.sp. tritici; experiment: Leaf disk assay, Puccinia recondita f.sp. tritici (wheat brown rust), preventive; type: in vivo; conditions: foliar, 216 h, wheat leaf segments, assessed nine days after inoculation, read-out: control of fungal infection, Puccinia recondita f.sp. tritici
Pyrenophora teres = experiment: Leaf disk assay, Pyrenophora teres (barley net blotch), preventive; type: in vivo; conditions: foliar, 96 h, barley leaf segments, assessed four days after inoculation, read-out: control of fungal infection, Pyrenophora teres
Procedure, shortened: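 Barley leaf segments on agar were sprayed with compound at 200 ppm (from DMSO stock diluted in water) and dried for 12-24 h before inoculation with a Pyrenophora teres spore suspension. Preventive fungicidal activity was scored 4 days after inoculation.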

Septoria nodorum = experiment: Leaf disk assay, Septoria nodorum (wheat glume blotch), preventive; type: in vivo; conditions: Parastagonospora nodorum, foliar, 96 h, wheat leaf segments, assessed four days after inoculation, read-out: control of fungal infection, Septoria nodorum
Pythium ultimum = experiment: Growth inhibition in potato dextrose broth, Pythium ultimum (damping off), photometric; type: cell-based; conditions: Globisporangium ultimum, 24° C., 48 hours, read-out: control of fungal infection, Pythium ultimum
Procedure, shortened: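 Growth inhibition was read photometrically at 48 hours after incubation at 24° C. Test compound was diluted from DMSO to 20 ppm in water and combined with potato dextrose broth seeded with Pythium ultimum mycelial fragments.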

Fusarium culmorum = experiment: Growth inhibition in nutrient broth, Fusarium culmorum (root rot), photometric; type: cell-based; conditions: 48 h, read-out: control of fungal infection, Fusarium culmorum
Procedure, shortened: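 Fusarium culmorum conidia in potato dextrose broth were added to compounds in DMSO. Plates were incubated at 24 C for 48 hrs, with growth inhibition read photometrically. […]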

[2] = system: Erysiphe graminis f.sp. tritici; experiment: Leaf disk assay, Erysiphe graminis f.sp. tritici (wheat powdery mildew), preventive; type: in vivo; conditions: Blumeria graminis, foliar, 96 h, wheat leaf segments, assessed four days after inoculation, read-out: control of fungal infection, Erysiphe graminis f.sp. tritici
Procedure, shortened: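 Preventive protocol: compound at 200 ppm in water (from DMSO) sprayed onto wheat leaf segments on agar, dried 12–24 h, then spore-inoculated. Fungicidal activity was assessed four days post-inoculation.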

Phytophthora infestans = experiment: whole plant or invertebrate; type: in vivo; conditions: in Solanum lycopersicum, foliar, 96 h, read-out: control of fungal infection, Phytophthora infestans
Septoria tritici = experiment: Growth inhibition in nutrient broth, Septoria tritici (leaf blotch), photometric; type: cell-based; conditions: Zymoseptoria tritici, PDB broth, 24 C, 72 hrs, read-out: control of fungal infection, Septoria tritici
Pyricularia oryzae = experiment: whole plant or invertebrate; type: in vivo; conditions: foliar, 96 h, read-out: control of fungal infection, Pyricularia oryzae

C#Cc1cnc2c(C)cc(OC(SC)C(=O)NC(C)(C)COC)cc2c1 (stereo not shown) [Example 13]
≥ 60%: pest or weed control at 200 ppm (Plasmopara viticola) | pest or weed control at 200 ppm (Botrytis cinerea) | pest or weed control at 200 ppm [1] | pest or weed control at 200 ppm (Pyrenophora teres) | pest or weed control at 200 ppm (Septoria nodorum) | inhibition of growth at 20 ppm (Pythium ultimum) | inhibition of growth at 60 ppm (Fusarium culmorum) | pest or weed control at 200 ppm [2] | pest or weed control at 200 ppm (Phytophthora infestans) | inhibition of growth at 60 ppm (Septoria tritici) | pest or weed control at 200 ppm (Pyricularia oryzae)

C#CCC(C)(C)NC(=O)C(Oc1cc(C)c2ncc(C#C)cc2c1)SC (stereo not shown) [Example 16]
≥ 60%: pest or weed control at 200 ppm (Plasmopara viticola) | pest or weed control at 200 ppm [1] | pest or weed control at 200 ppm (Pyrenophora teres) | pest or weed control at 200 ppm (Septoria nodorum) | inhibition of growth at 20 ppm (Pythium ultimum) | inhibition of growth at 60 ppm (Fusarium culmorum) | pest or weed control at 200 ppm [2] | pest or weed control at 200 ppm (Phytophthora infestans) | inhibition of growth at 60 ppm (Septoria tritici) | pest or weed control at 200 ppm (Pyricularia oryzae)

C#Cc1cnc2cc(F)c(OC(SC)C(=O)NC(C)(C#N)COC)cc2c1 (stereo not shown) [Example 6]
≥ 60%: pest or weed control at 200 ppm (Plasmopara viticola) | pest or weed control at 200 ppm [1] | pest or weed control at 200 ppm (Septoria nodorum) | inhibition of growth at 20 ppm (Pythium ultimum) | pest or weed control at 200 ppm [2] | pest or weed control at 200 ppm (Phytophthora infestans) | inhibition of growth at 60 ppm (Septoria tritici) | pest or weed control at 200 ppm (Pyricularia oryzae)

C#Cc1cnc2c(C)cc(OC(SC)C(=O)NC(C)(C#N)COC)cc2c1 (stereo not shown) [Example 12]
≥ 60%: pest or weed control at 200 ppm (Plasmopara viticola) | pest or weed control at 200 ppm [1] | pest or weed control at 200 ppm (Septoria nodorum) | inhibition of growth at 20 ppm (Pythium ultimum) | pest or weed control at 200 ppm [2] | pest or weed control at 200 ppm (Phytophthora infestans) | inhibition of growth at 60 ppm (Septoria tritici) | pest or weed control at 200 ppm (Pyricularia oryzae)

C#Cc1cnc2c(C)cc(OC(SC)C(=O)NC(C)(C)C#C)cc2c1 (stereo not shown) [Example 7]
≥ 60%: pest or weed control at 200 ppm (Plasmopara viticola) | pest or weed control at 200 ppm (Pyrenophora teres) | pest or weed control at 200 ppm (Septoria nodorum) | inhibition of growth at 20 ppm (Pythium ultimum) | inhibition of growth at 60 ppm (Fusarium culmorum) | pest or weed control at 200 ppm (Phytophthora infestans) | inhibition of growth at 60 ppm (Septoria tritici) | pest or weed control at 200 ppm (Pyricularia oryzae)

C#CCOCC(C)(C)NC(=O)C(Oc1cc(C)c2ncc(C#C)cc2c1)SC (stereo not shown) [Example 14]
≥ 60%: pest or weed control at 200 ppm (Plasmopara viticola) | pest or weed control at 200 ppm (Botrytis cinerea) | pest or weed control at 200 ppm [1] | pest or weed control at 200 ppm (Pyrenophora teres) | pest or weed control at 200 ppm (Septoria nodorum) | inhibition of growth at 20 ppm (Pythium ultimum) | inhibition of growth at 60 ppm (Fusarium culmorum) | pest or weed control at 200 ppm [2] | pest or weed control at 200 ppm (Phytophthora infestans) | inhibition of growth at 60 ppm (Septoria tritici) | pest or weed control at 200 ppm (Pyricularia oryzae)

C#Cc1cnc2c(C)cc(OC(SC)C(=O)NC(C)(C)C#CCOC)cc2c1 (stereo not shown) [Example 9]
≥ 60%: pest or weed control at 200 ppm (Plasmopara viticola) | pest or weed control at 200 ppm [1] | pest or weed control at 200 ppm (Septoria nodorum) | inhibition of growth at 20 ppm (Pythium ultimum) | inhibition of growth at 60 ppm (Fusarium culmorum) | pest or weed control at 200 ppm [2] | pest or weed control at 200 ppm (Phytophthora infestans) | inhibition of growth at 60 ppm (Septoria tritici) | pest or weed control at 200 ppm (Pyricularia oryzae)

C#CCOCC#CC(C)(C)NC(=O)C(Oc1cc(C)c2ncc(C#C)cc2c1)SC (stereo not shown) [Example 10]
≥ 60%: pest or weed control at 200 ppm (Plasmopara viticola) | pest or weed control at 200 ppm (Septoria nodorum) | inhibition of growth at 20 ppm (Pythium ultimum) | inhibition of growth at 60 ppm (Fusarium culmorum) | pest or weed control at 200 ppm [2] | pest or weed control at 200 ppm (Phytophthora infestans) | inhibition of growth at 60 ppm (Septoria tritici) | pest or weed control at 200 ppm (Pyricularia oryzae)

C#Cc1cnc2c(C)cc(OC(SC)C(=O)NC(C)(C)CO)cc2c1 (stereo not shown) [Example 15]
≥ 60%: pest or weed control at 200 ppm (Plasmopara viticola) | pest or weed control at 200 ppm (Septoria nodorum) | inhibition of growth at 20 ppm (Pythium ultimum) | pest or weed control at 200 ppm (Phytophthora infestans) | inhibition of growth at 60 ppm (Septoria tritici) | pest or weed control at 200 ppm (Pyricularia oryzae)

C#Cc1cnc2c(C)cc(OC(SC)C(=O)NC(C)(C)C#CC)cc2c1 (stereo not shown) [Example 8]
≥ 60%: pest or weed control at 200 ppm (Plasmopara viticola) | pest or weed control at 200 ppm (Botrytis cinerea) | pest or weed control at 200 ppm (Pyrenophora teres) | pest or weed control at 200 ppm (Septoria nodorum) | inhibition of growth at 20 ppm (Pythium ultimum) | inhibition of growth at 60 ppm (Fusarium culmorum) | pest or weed control at 200 ppm (Phytophthora infestans) | inhibition of growth at 60 ppm (Septoria tritici) | pest or weed control at 200 ppm (Pyricularia oryzae)
